The record followed here is patent US5430062A, “Stilbene derivatives as anticancer agents” (priority 1993, dated 1995).

Values joined by “and” are separate entries in the source; they are usually repeats but may differ in a detail not shown here. Equal entries are not always repeated. “Also recorded” adds a separate entry of the source. Where two headings read alike, the source gives them in different places.

The subject of series [1] is tubulin. The series can be described thus: Inhibition of tubulin polymerization (turbidimetry). The format is biochemical, bovine. The note with it: for increase in IC50 / loss of activity in tubulin polymerization: relative to the parent 5a (8a, 5b) or 8a (12a).
Series [2] has as its system tubulin. The series can be described thus: Inhibition of [3H]colchicine binding to tubulin (DEAE-filter). The note with it: for Colchicine binding % inhibition: 1 μM tubulin, 5 μM [3H]colchicine, 5 μM inhibitor, 10 min, 37° C. More on the design: species or system bovine.
For series [3], the system named is MLM melanoma. Kind of series: MTT cytotoxicity assay, MLM. Particulars: […]. Background: Tetrazolium assays rely on reduction of a dye to a coloured formazan, in cell work by metabolically active cells.
Series [4] has as its system A-549 lung carcinoma. Kind of series: MTT cytotoxicity assay, A-549. Particulars: Homo sapiens, A549, […].
In series [5] the test system is MCF-7 breast carcinoma. Kind of series: MTT cytotoxicity assay, MCF-7. Particulars: Homo sapiens, MCF7, […].
The subject of series [6] is SKMEL-5 melanoma. The series can be described thus: MTT cytotoxicity assay, SKMEL-5. Particulars: Homo sapiens, SK-MEL-5, […], read-out: Cytotoxicity ED50, SKMEL-5.
Series [7] has as its system five cancer cell cultures. Kind of series: MTT cytotoxicity assay, five cancer cell cultures taken together. Particulars: for cytotoxicity (in words): five cancer cell lines; for less cytotoxic than 1a and 5a: relative to 1a and 5a.
For series [8], the system named is HT-29 colon adenocarcinoma. The series can be described thus: MTT cytotoxicity assay, HT-29. The note with it: Homo sapiens, HT-29, […].
For series [9], the system named is M14 melanoma. The series can be described thus: Cytotoxicity, M14. The note with it: read-out: cytotoxicity GI50, M14; 50% growth inhibition; average of two determinations; 8640 min.
Series [10] concerns SF-295 CNS cancer. Kind of series: Cytotoxicity, SF-295. The note with it: read-out: cytotoxicity GI50, SF-295; 50% growth inhibition; average of two determinations; 8640 min.
The test system of series [11] is CAKI-1 renal cancer. Kind of series: Cytotoxicity, CAKI-1. Particulars: read-out: cytotoxicity GI50, CAKI-1; 50% growth inhibition; average of two determinations; 8640 min.
Series [12] has as its system DMS 273 small cell lung cancer. Kind of series: Cytotoxicity, DMS 273. Particulars: read-out: cytotoxicity GI50, DMS 273; 50% growth inhibition; average of two determinations; 8640 min.
The subject of series [13] is OVCAR-3 ovarian cancer. The series can be described thus: Cytotoxicity, OVCAR-3. The note with it: read-out: cytotoxicity GI50, OVCAR-3; 50% growth inhibition; average of two determinations; 8640 min.
The mark [14] stands for this setting: first series (Table VIII and text), 37° C., 20 min, read-out: Tubulin polymerization IC50 (±S.D.).
Where [15] appears, read: read-out: Cytotoxicity ED50, MLM, MLM, MTT, six days.
Setting [16] is: read-out: Cytotoxicity ED50, A-549, A-549, MTT, six days.
The mark [17] stands for this setting: read-out: Cytotoxicity ED50, MCF-7, MCF-7, MTT, six days.
[18] abbreviates: read-out: Cytotoxicity ED50, MLM.
Where [19] appears, read: read-out: Cytotoxicity ED50, A-549.
Setting [20] is: read-out: Cytotoxicity ED50, MCF-7.
[21] abbreviates: read-out: Cytotoxicity ED50, HT-29.
Setting [22] is: read-out: cytotoxicity ED50, in at least three cell lines.
Setting [23] is: Table X, different glutamate preparation (1M monosodium glutamate and GTP), read-out: inhibn of tubulin polymn IC50 (±SD).
[24] abbreviates: read-out: cytotoxicity ED50, five cancer cell lines.

As to `COc1ccc(/C=C\c2cc(OC)c(OC)c(OC)c2)c(Cl)c1` [compound 5e], the “inhibition of tubulin polymerization (in words)” value in series [1] was “strong inhibitors of tubulin polymerization; also recorded: active as inhibitors of tubulin polymerization; also recorded: small reductions”. Also, the IC50 in series [1] (setting [14]) came out at 3500 nM; in [3] (setting [15]), 140 nM; in [4] (setting [16]), 51 nM; in [5] (setting [17]), 46 nM; in series [6], 17 nM. Also, the “Colchicine binding % inhibition” value in series [2] is 73%. Besides, the “cytotoxicity (in words)” value in series [7] is listed as “decreased the cytotoxicity”. Besides, the “less cytotoxic than 1a and 5a” value in series [7] is on record as “about 1000 -fold”.
In the case of `COc1cc(/C=C\c2ccc(Cl)cc2)cc(OC)c1OC` [5g, (Z)-1-(4-Chlorophenyl)-2-(3,4,5-trimethoxyphenyl)ethene], the “inhibition of tubulin polymerization (in words)” value in series [1] is reported as “strong inhibitors of tubulin polymerization; also recorded: active as inhibitors of tubulin polymerization; also recorded: small reductions”. The IC50 in [1] (setting [14]) came to 4800 nM; in series [3] (setting [18]), 170 nM; in [4] (setting [19]), 80 nM; in series [5] (setting [20]) it was 180 nM; in [8] (setting [21]), 50 nM; in series [6], 10 nM. Moreover, the IC50 in series [7] (read-out: cytotoxicity ED50) is under 100 nM. Further, the “Colchicine binding % inhibition” value in series [2] was found to be 55%. Also, in series [7], the “less cytotoxic than 1a and 5a” value was “about 1000 -fold”.
Turning to `COc1cc(/C=C\c2ccc(OC(C)=O)cc2)cc(OC)c1OC` [compound 5p, (Z)-1-(4-Acetoxyphenyl)-2-(3,4,5-trimethoxyphenyl)ethene], the IC50 in series [1] (setting [14]) was found to be 29000 nM; in [3] (setting [18]), 6300 nM; in [4] (setting [19]) it was 1700 nM; in series [5] (setting [20]), 300 nM; in series [8] (setting [21]), 6000 nM; in series [6] it was 600 nM. Besides, the “Colchicine binding % inhibition” value in series [2] was 24%. For the same molecule, the “cytotoxicity (in words)” value in [7] was “decreased the activity drastically”.
For `COc1cc(CCc2ccc(N(C)C)cc2)cc(OC)c1OC` [compound 8n, 1-[4-(Dimethylamino)phenyl]-2-(3,4,5-trimethoxyphenyl)ethane], the “inhibition of tubulin polymerization (in words)” value in series [1] was “only modest inhibitory effects on tubulin polymerization”. For the same molecule, the IC50 amounted to 29000 nM in series [1] (setting [14]); 120 nM in series [3] (setting [18]); 83 nM in [4] (setting [19]); 64 nM in [5] (setting [20]); 77 nM in series [8] (setting [21]); 59 nM in series [6]. Further, the IC50 in [7] (setting [22]) is under 1000 nM. Also, the “Colchicine binding % inhibition” value in series [2] amounted to 31%.
Usually GI50 stands for the concentration that inhibits growth by half. `CCc1ccc(N=Cc2cc(OC)c(OC)c(OC)c2)cc1` [108b, 4-Ethyl-N-(3,4,5-trimethoxybenzylidene)aniline]: the IC50 in series [1] (setting [23]) is over 40000 nM. Moreover, the GI50 in [9], in [10], in [11], in [12] and in series [13] was over 100000 nM in each case.
As to `COc1cccc(/C=C\c2cc(OC)c(OC)c(OC)c2)c1` [compound 5b, (Z)-1-(3-Methoxyphenyl)-2-(3,4,5-trimethoxy-phenyl)ethene], the “inhibition of tubulin polymerization (in words)” value in series [1] is listed as “strong inhibitors of tubulin polymerization; also recorded: active as inhibitors of tubulin polymerization”. The IC50 in series [1] (setting [14]) came out at 8800 nM; in series [3] (setting [15]), 1400 nM; in series [4] (setting [16]), 130 nM; in [5] (setting [17]), 140 nM; in [8] (read-out: Cytotoxicity ED50, HT-29, HT-29, MTT, six days) it was 90 nM; in [6] it was 60 nM. For the same molecule, the IC50 in series [7] (read-out: cytotoxicity ED50) was under 1000 nM. In addition, the “increase in IC50 / loss of activity in tubulin polymerization” value (“increase in IC50 / loss of activity” for short) in series [1] is reported as 4 -fold. In series [2], the “Colchicine binding % inhibition” value came to 50%. Moreover, the “cytotoxicity (in words)” value in [7] is given as “decreased the activity drastically”.
With `COc1cc(/C=C\c2ccccc2)cc(OC)c1OC` [compound 5f, (Z)-1-Phenyl-2-(3,4,5-trimethoxyphenyl)ethene], the IC50 is 36000 nM in [1] (setting [14]); over 25000 nM in [3] (setting [18]); 170 nM in series [4] (setting [19]); 250 nM in series [5] (setting [20]); 84 nM in series [8] (setting [21]); 120 nM in series [6]. Also, the “Colchicine binding % inhibition” value in series [2] worked out at 14%. Also, in series [7], the “cytotoxicity (in words)” value is on record as “decreased the activity drastically”.
For `COc1cc(/C=C\c2ccc(Br)cc2)cc(OC)c1OC` [5h, (Z)-1-(4-Bromophenyl)-2-(3,4,5-trimethoxyphenyl)ethene], the “inhibition of tubulin polymerization (in words)” value in series [1] is “strong inhibitors of tubulin polymerization; also recorded: active as inhibitors of tubulin polymerization; also recorded: small reductions”. Further, the IC50 in series [1] (setting [14]) is 3100 nM; in [3] (setting [18]), 14 nM; in series [4] (setting [19]), 11 nM; in series [5] (setting [20]) it was 16 nM; in series [8] (setting [21]), 8.2 nM; in series [6], 6.7 nM. In series [7] (read-out: cytotoxicity ED50), the IC50 is under 100 nM. In addition, the “Colchicine binding % inhibition” value in series [2] came to 73%. Besides, in series [7], the “less cytotoxic than 1a and 5a” value is reported as “about 1000 -fold”.
As for `COc1ccc(N=Cc2cc(OC)c(OC)c(OC)c2)cc1` [108c, 4-Methoxy-N-(3,4,5-trimethoxybenzylidene)aniline], the IC50 in [1] (setting [23]) was over 40000 nM. For the same molecule, the values for the GI50 in [11], in series [12] and in [13] were over 100000 nM, 33000 nM and over 100000 nM, respectively.
On to `COc1ccc(CCc2cc(OC)c(OC)c(OC)c2)cc1` [compound 8a, 1-(4-Methoxyphenyl)-2-(3,4,5-trimethoxyphenyl)ethane], for which the “inhibition of tubulin polymerization (in words)” value in series [1] is “strong inhibitors of tubulin polymerization”. Besides, the IC50 was 7900 nM in [1] (setting [14]); 0.18 nM in series [3] (setting [18]); 0.18 nM in series [4] (setting [19]); 0.16 nM in [5] (setting [20]); 0.25 nM in [8] (setting [21]); 0.14 nM in [6]. Also, the values for the IC50 in series [7] (setting [24]) and in series [7] (setting [22]) were about 0.2 nM and under 1000 nM, respectively. Also, in series [1], the “increase in IC50 / loss of activity” value was ~4 -fold. Also, in [2], the “Colchicine binding % inhibition” value came out at 65%. Besides, the “cytotoxicity (in words)” value in [7] is reported as “more cytotoxic than dihydrocombretastatin A-4 (1c) in all five cancer cell lines”.
With `COc1ccc(NCc2cc(OC)c(OC)c(OC)c2)cc1` [compound 12a, 3,4,5-Trimethoxy-N-(4-methoxyphenyl)benzylamine], in series [1], the “inhibition of tubulin polymerization (in words)” value is “only modest inhibitory effects on tubulin polymerization”. For the same molecule, the IC50 in [1] (setting [14]) worked out at 23000 nM; in series [3] (setting [18]) it was 1.6 nM; in [4] (setting [19]), 1.9 nM; in [5] (setting [20]) it was 2.4 nM; in series [8] (setting [21]) it was 1 nM; in series [6] it was 0.7 nM. Further, the IC50 was about 1 nM in [7] (setting [24]) and under 1000 nM in [7] (setting [22]). Further, the “increase in IC50 / loss of activity” value in [1] is recorded as 3 -fold. The “Colchicine binding % inhibition” value in series [2] is 34%. In series [7], the “cytotoxicity (in words)” value was “only an order of magnitude less cytotoxic than 8a”.
As to `COc1ccc(CCc2cc(OC)c(OC)c(OC)c2)cc1O` [compound 1c, reference compound], the IC50 in series [1] (setting [14]) came to 3300 nM; in series [3] (setting [18]), 10 nM; in series [4] (setting [19]) it was 10 nM; in series [5] (setting [20]) it was 330 nM; in series [8] (setting [21]) it was 8.1 nM; in series [6], 2.1 nM. Besides, the “inhibition of colchicine binding (in words)” value in series [2] is given as “inhibit the binding of radiolabeled colchicine to tubulin”. The “Colchicine binding % inhibition” value in [2] is reported as 79%.
Consider `COc1cc(/C=C\c2ccc(N(C)C)cc2)cc(OC)c1OC` [compound 5n, (Z)-1-[4-(N,N-Dimethylamino)phenyl)-2-(3,4,5-trimethoxyphenyl)ethene], for which, in [1], the “inhibition of tubulin polymerization (in words)” value is recorded as “strong inhibitors of tubulin polymerization; also recorded: small reductions”. Moreover, the IC50 in series [1] (setting [14]) is 3400 nM and 3500 nM; in series [3] (setting [18]), 9.4 nM; in [4] (setting [19]), 4.1 nM; in series [5] (setting [20]), 5.8 nM; in [8] (setting [21]), 8.1 nM; in series [6] it was 0.15 nM. In addition, the IC50 was under 100 nM in series [7] (setting [24]) and under 1000 nM in series [7] (setting [22]). The “Colchicine binding % inhibition” value in series [2] came out at 83%.
